Assay results published in patent publication US7982094B2, “Gene encoding lignan methylation enzyme” (Sunitory Holdings Limited, priority 2006, dated 2011).

Tests used:
[1] = test system: SiOMT2; assay: Lignan methylation activity assay of recombinant SiOMT2 (crude enzyme from E. coli, SAM, HPLC of products); format: biochemical, Sesamum indicum; details: substrate solution 1 mg/ml, 10 mM SAM, 30° C. for 2 hours, HPLC at 280 nm
Description: (§1) Sesame lignan used as a substrate for the enzyme reaction was dissolved in a small quantity of DMSO and then in 70% ethanol to prepare the substrate solution (1 mg/ml). Sesame lignan can be produced, for example, by extracting and purifying from sesame in accordance with publicly known methods (J. Bioscience, Biotechnology and Biochemistry, 67: 1693 (1993)). After 10 μl of the substrate solution, 200 μl of the aforesaid crude enzyme solution of SiOMT expressed in Escherichia coli and 10 μl of 10 mM S-adenosyl-L-methionine (SAM) were mixed in a reaction tube, the mixture was reacted at 30° C. for 2 hours.
The enzyme reaction was terminated by adding 100% acetonitrile (250 μl) containing 0.1% trifluoroacetic acid (TFA) to the reaction tube. […] The resulting supernatant was washed through a filter (pore size of […], 4 mm Millex-LH, Millipore) and then analyzed using high performance liquid chromatography (hereinafter HPLC). […]
Liquid chromatography (Lc-2010c, Shimadzu Corporation) was performed using a C-30 column (Nomura Chemical, C30-UG-5, […]). […] Absorption was monitored at 280 nm to detect the compounds contained in a sample. The spectra between 190 nm and 400 nm for each peak of the compounds were measured using SPD-10AV (Shimadzu Corporation) to detect substances having two absorption maxima (230 nm and 280 nm) characteristic of lignans. […]

[2] = test system: SrOMT1; assay: Lignan methylation activity assay of recombinant SrOMT1 (crude enzyme from E. coli, SAM, HPLC of products); format: biochemical, Sesamum radiatum; details: as in EXAMPLE 6: 10 mM SAM, 30° C. for 2 hours
[3] = test system: SiOMT1; assay: Lignan methylation activity assay of recombinant SiOMT1 (crude enzyme from E. coli, SAM, HPLC/LC-MS of products); format: biochemical, Sesamum indicum; details: substrate solution 1 mg/ml, 10 mM SAM, 30° C. for 2 hours, HPLC at 280 nm
Description: as §1
The enzyme reaction was terminated by adding 100% acetonitrile (250 μl) containing 0.1% trifluoroacetic acid (TFA) to the reaction tube. The reaction tube was vigorously agitated with a vortex mixer, followed by centrifugation at 15,000 rpm at 4° C. for 5 minutes. The resulting supernatant was washed through a filter (pore size of […], 4 mm Millex-LH, Millipore) and then analyzed using high performance liquid chromatography (hereinafter HPLC). The conditions for the analysis of lignans and methylated lignans are as follows.
Liquid chromatography (Lc-2010c, Shimadzu Corporation) was performed using a C-30 column (Nomura Chemical, C30-UG-5, […]). […] Absorption was monitored at 280 nm to detect the compounds contained in a sample. The spectra between 190 nm and 400 nm for each peak of the compounds were measured using SPD-10AV (Shimadzu Corporation) to detect substances having two absorption maxima (230 nm and 280 nm) characteristic of lignans. Under the conditions, authentic pinoresinol is detected at about 11.8 minutes, authentic piperitol at about 15.5 minutes and authentic sesaminol at about 16.8 minutes.
Next, the molecular weight of the novel lignan produced with SiOMT1 was determined by the LC-MS analysis (liquid chromatography (LC): Waters 2795 (Waters Inc.), mass spectrograph: QUATRO micro (MICROMASS, Inc.)). […]
Under the conditions, peak A is detected at about 8.3 minutes and peak B at about 11.3 minutes (FIGS. 3-5). […]

[4] = test system: SiOMT1; assay: Assay for COMT activity of SiOMT1 on caffeic acid; format: biochemical, Sesamum indicum; details: 0.4 mg/ml caffeic acid, 10 mM SAM, 30° C. for an hour, HPLC and LC-MS; product ferulic acid
Description: (§2) The methyltransferase activity of SiOMT1 and SrOMT1 expressed in EXAMPLES 5 and 7 on caffeic acid was studied. In a reaction tube, 10 μl of 0.4 mg/ml caffeic acid, 200 μl of the crude enzyme solution of SiOMT expressed in Escherichia coli and 10 μl of 10 mM SAM were mixed, and the mixture was reacted at 30° C. for an hour.

[5] = test system: SrOMT1; assay: Assay for COMT activity of SrOMT1 on caffeic acid; format: biochemical, Sesamum radiatum; details: 0.4 mg/ml caffeic acid, 10 mM SAM, 30° C. for an hour, HPLC and LC-MS; product ferulic acid
Description: as §2

## COc1cc([C@@H]2OC[C@@H]3[C@H]2CO[C@H]3c2ccc3c(c2)OCO3)ccc1O [piperitol]
[1]
  methylation of the substrate by SiOMT2 (lignan methylation activity): any new product was not detected
[2]
  methylation of the substrate by SrOMT1 (lignan methylation activity): exhibited the methylation activity
[3]
  methylation of the substrate by SiOMT1 (lignan methylation activity): having the monomethylation activity

## Oc1cc2c(cc1[C@H]1OC[C@H]3[C@@H]1CO[C@@H]3c1ccc3c(c1)OCO3)OCO2 [sesaminol]
[3]
  methylation of the substrate by SiOMT1 (lignan methylation activity): did not show any methylation activity

## pinoresinol
[1]
  methylation of the substrate by SiOMT2 (lignan methylation activity): any new product was not detected
[2]
  methylation of the substrate by SrOMT1 (lignan methylation activity): exhibited the methylation activity
[3]
  methylation of the substrate by SiOMT1 (lignan methylation activity): having the monomethylation activity

## O=C(O)/C=C/c1ccc(O)c(O)c1 [caffeic acid]
[4]
  methyltransferase (COMT) activity of SiOMT1 on caffeic acid: had the COMT activity
[5]
  methyltransferase (COMT) activity of SrOMT1 on caffeic acid: had the COMT activity
